{"source": "patent US6376666B1", "about": "(Nauchno-Issledovatelsky Institut Farmakologii Rossiiskoi …, priority 1994, dated 2002)", "key": {"in vivo": {"assay": "in vivo", "details": "rat, iv"}, "[1]": {"test_system": "ischemized myocardium of cats", "assay": "contractile and pump functions and ATP level of ischemized myocardium (20-40 min occlusion, reperfusion)", "format": "in vivo", "procedure": "The effects of this compound on contractile and pump functions of ischemized myocardium were studied in cats weighing 3,0-4,5 kg under anesthesia with nembutal (40 mg/kg). […] The phase curve of blood flow in ascending part of the aortic arch was recorded with electromagnetic blood flowmeter MFV-1200 (“Nihon-Kohden”, Japan). Hemodynamics, heart activity values and the number of arrhythmia were calculated. In the experiments with 40 min ischemia immediately after 60 min the intact and ischemized zones of left ventricle were dissected and freezed in liquid nitrogen. ATP level was measured using hexokinase method in these zones. 4 series of experiments (2-control and 2-basic) were conducted in 12 cats in each. For statistical calculation the t-Student and Fisher's precision test were used."}, "outbred male mice": {"test_system": "outbred male mice", "assay": "rotarod test (myorelaxant activity)", "format": "in vivo", "details": "for time of remaining on the rotarod: cut-off 120 sec", "procedure": "The myorelaxant activity of choosen compounds were studied in the outbred male mice weighing 22-25 g in rotarod test [Voronina T. A. et al., in: “Phenazepam”, Naukova Dumka, Kiev, 1982, p.145]. The animals were placed on the horizontal rotarod (D=2 cm) calibrated for a fixed speed of 4 rpm. According to the rotarod experimental protocol, normal motor coordination was defined by the ability of the animals to remain on the rotarod for an arbitrarily selected time of 120 sec."}, "outbred male rats": {"test_system": "outbred male rats", "assay": "conflict Vogel test (punished licking of water)", "format": "in vivo", "details": "M ± mx", "procedure": "The study of anxiolytic activity of chosen compounds was carried out in the experiments with outbred male rats weighing 180-200 g in standard conflict Vogel' procedure [Voronina T. A. et al., in: “Phenazepam”, Naukova Dumka, Kiev, 1982, p.89, 93, 146]. The main aim of the initial step of experiments was the training of rats to develop the feeling of thirst with following experience of water licking from bottle in the experimental chamber. The animals were deprived of water for 24 hours and were placed in the test chamber for 5-min adaptation period during which they had free access to the drinking bottle. After another 24 h deprivation period the rats were placed again in the test chamber and were allowed to drink water for 5 sec. Immediately afterwards drinking attempts were punished by electric shock (0,5 mA). Under this collision of drinking and protective reflexes the extremal situation was developed. In this situation the anxiety of punishment prevented the licking process. The number of shocks received throughout a 5-min experimental session was recorded."}, "outbred mice": {"test_system": "outbred mice", "assay": "acute toxicity after per os administration", "details": "mouse, in vivo", "procedure": "(§1) The acute toxicity was measured in outbred mice after per os administration of used drugs in the 1% starch suspension. The lethal doses were calculated according to Litchfield-Wilcocson' method. […]."}, "[2]": {"assay": "acute toxicity after per os administration", "details": "mouse, in vivo, oral; outbred mice, per os, 1% starch suspension, Litchfield-Wilcocson", "procedure": "as §1"}, "male outbred mice": {"test_system": "male outbred mice", "assay": "potentiation of sleep induced by sodium thiopental", "format": "in vivo", "procedure": "The possible hypnotic effects of choosen drugs was estimated according to method of potentiation of sleep induced by sodium thiopental. The male outbred mice weighing 20-25 g were injected i.p. with sodium thiopental at dose of 70 mg/kg. Two parameters were estimated: latent time of sleeping and duration of sleep. The used compounds were administered i.p. 30 min prior injection of sodium thiopental."}, "[3]": {"details": "40 min occlusion, 60 min reperfusion"}, "[4]": {"details": "0.01 mg/kg i.p. 30 min before thiopental 70 mg/kg i.p."}, "[5]": {"details": "0.1 mg/kg i.p. 30 min before thiopental 70 mg/kg i.p."}, "[6]": {"details": "1.0 mg/kg i.p. 30 min before thiopental 70 mg/kg i.p."}, "[7]": {"details": "5.0 mg/kg i.p. 30 min before thiopental 70 mg/kg i.p."}, "[8]": {"details": "10.0 mg/kg i.p. 30 min before thiopental 70 mg/kg i.p."}}}
{"smiles": "CCOc1ccc2nc(SCCN(CC)CC)[nH]c2c1", "note": "[Compound IX, 2-[2-(Diethylamino)ethylthio]-5-ethoxybenz-imidazole]", "values": [{"measurement": "LD50", "setting": "in vivo", "value": 31.5, "unit": "mg/kg"}, {"measurement": "effect on number of arrhythmias during occlusion and reperfusion, in words", "setting": "[1]; 20 min occlusion, 30 min reperfusion", "value": "decreased the number of arrhythmias"}, {"measurement": "effect on cardiac output, in words", "setting": "[1]; 20 min occlusion, 30 min reperfusion, 1,0 mg/kg bolus +50 mcg/kg/min i.v.", "value": "prevented the decrease in cardiac output"}, {"measurement": "effect on inhibition of contractile function of myocardium induced by ischemic damage, in words", "setting": "[1]; 20 min occlusion, 30 min reperfusion, 1,0 mg/kg bolus +50 mcg/kg/min i.v. during 30 min", "value": "significantly prevents the inhibition of contractile function of myocardium"}, {"measurement": "effect on ATP level in intact zones of myocardium, in words", "setting": "[1]; [3]", "value": "did not change it in the intact zones"}, {"measurement": "effect on cardiac output, in words", "setting": "[1]; [3]", "value": "no effect on changes in cardiac output"}, {"measurement": "effect on stroke volume, in words", "setting": "[1]; [3]", "value": "prevented the decrease in stroke volume"}, {"measurement": "effect on ATP level in ischemized myocardium, in words", "setting": "[1]; 40 min occlusion, 60 min reperfusion, hexokinase method", "value": "increased the ATP level in the ischemized myocardium"}, {"measurement": "effect on number of arrhythmias induced by occlusion and reperfusion, in words", "setting": "[1]; critical and mild ischemia", "value": "did not reduced the number of arrhythmias"}, {"measurement": "effect on inhibition of contractile function of heart, in words", "setting": "[1]; critical ischemia: 40 min occlusion, 60 min reperfusion", "value": "prevented the inhibition of contractile function of heart"}]}
{"smiles": "CCOc1ccc2nc(SCCN3CCOCC3)[nH]c2c1", "note": "[XII, 2-[2-(Morpholino)ethylthio]-5-ethoxybenzimidazole]", "values": [{"measurement": "time of remaining on the rotarod", "setting": "outbred male mice; 0.01 mg/kg", "value": "120.0 + 0 sec"}, {"measurement": "time of remaining on the rotarod", "setting": "outbred male mice; 0.1 mg/kg", "value": "120.0 + 0 sec"}, {"measurement": "time of remaining on the rotarod", "setting": "outbred male mice; 1.0 mg/kg", "value": "120.0 + 0 sec"}, {"measurement": "time of remaining on the rotarod", "setting": "outbred male mice; 5.0 mg/kg", "value": "120.0 + 0 sec"}, {"measurement": "time of remaining on the rotarod", "setting": "outbred male mice; 10.0 mg/kg", "value": "120.0 + 0 sec"}, {"measurement": "time of remaining on the rotarod", "setting": "outbred male mice; 20.0 mg/kg", "value": "118.8 ± 1.6", "unit": "s"}, {"measurement": "time of remaining on the rotarod", "setting": "outbred male mice; 50.0 mg/kg", "value": "111.3 ± 7.5", "unit": "s"}, {"measurement": "effect on motor coordination in rotarod test, in words", "setting": "outbred male mice; dose range 0,01 mg/kg-50 mg/kg", "value": "no effect on the motor coordination"}, {"measurement": "number of punished lickings (shocks received in 5-min session)", "setting": "outbred male rats; 1.0 mg/kg i.p.", "value": "15.3 ± 3.4"}, {"measurement": "number of punished lickings (shocks received in 5-min session)", "setting": "outbred male rats; 5.0 mg/kg i.p.", "value": "19.0 ± 2.5"}, {"measurement": "number of punished lickings (shocks received in 5-min session)", "setting": "outbred male rats; 10.0 mg/kg i.p.", "value": "15.4 ± 2.5"}, {"measurement": "number of punished lickings (shocks received in 5-min session)", "setting": "outbred male rats; 20.0 mg/kg i.p.", "value": "28.0 ± 5.8"}, {"measurement": "toxicity, conclusion in words", "setting": "outbred mice", "value": "not toxic"}, {"measurement": "LD50", "setting": "[2]", "value": 1160, "unit": "mg/kg"}, {"measurement": "duration of sleep after sodium thiopental", "setting": "male outbred mice; [4]", "value": "76.4 ± 16.7", "unit": "min"}, {"measurement": "latent time of sleep after sodium thiopental", "setting": "male outbred mice; [4]", "value": "1.86 ± 0.27", "unit": "s"}, {"measurement": "duration of sleep after sodium thiopental", "setting": "male outbred mice; [5]", "value": "54.5 ± 9.9", "unit": "min"}, {"measurement": "latent time of sleep after sodium thiopental", "setting": "male outbred mice; [5]", "value": "1.94 ± 0.18", "unit": "s"}, {"measurement": "duration of sleep after sodium thiopental", "setting": "male outbred mice; [6]", "value": "67.9 ± 4.3", "unit": "min"}, {"measurement": "latent time of sleep after sodium thiopental", "setting": "male outbred mice; [6]", "value": "2.78 ± 0.17", "unit": "s"}, {"measurement": "duration of sleep after sodium thiopental", "setting": "male outbred mice; [7]", "value": "71.7 ± 14.6", "unit": "min"}, {"measurement": "latent time of sleep after sodium thiopental", "setting": "male outbred mice; [7]", "value": "2.21 ± 0.17", "unit": "s"}, {"measurement": "duration of sleep after sodium thiopental", "setting": "male outbred mice; [8]", "value": "92.4 ± 9.9", "unit": "min"}, {"measurement": "latent time of sleep after sodium thiopental", "setting": "male outbred mice; [8]", "value": "2.28 ± 0.24", "unit": "s"}]}
